According to patent publication US20020187514A1 (priority 1999, published 2002):

Key:
[1] = tested on: Potassium Channel, Ca2+ Act., VS; experiment: Potassium Channel, Ca2+ Act., VS; [125I]Charybdotoxin; type: binding; conditions: 10^−5 M
[2] = tested on: Inositol Triphosphate, IP3; experiment: Inositol Triphosphate, IP3; [3H]IP3; type: binding; conditions: 10^−5 M
Calcium Channel, Type N = type: binding
Glutamate, Kainate Site = experiment: Glutamate, Kainate Site; [3H]Kainic acid; type: binding; conditions: 10^−5 M
Glutamate, MK-801 Site = experiment: Glutamate, MK-801 Site; [3H]MK-801; type: binding; conditions: 10^−5 M
Cannabinoid, CB1 = target: T1, Cannabinoid, CB1 (Homo sapiens, UniProt P21554); experiment: Cannabinoid, CB1 (Human recombinant); [3H]-CP55940; type: binding; conditions: read-out: Pass 1 (10^−5 M) % Inhibition
T1 construct: expressed in transfected cells

Serotonin, 5HT5A = target: T2, Serotonin, 5HT5A (Homo sapiens, UniProt P47898); experiment: biochemical; type: binding; conditions: read-out: Pass 1 (10^−5 M) % Inhibition
T2 construct: expressed in transfected cells

Angiotensin II, ATI = Angiotensin II, ATI (Homo sapiens, UniProt P30556); experiment: Angiotensin II, ATI (Human); [125I]-(Sar1-Ile8) Angiotensin; type: binding; conditions: read-out: Pass 1 (10^−5 M) % Inhibition
Angiotensin II, ATI, sequence (P30556 whole entry): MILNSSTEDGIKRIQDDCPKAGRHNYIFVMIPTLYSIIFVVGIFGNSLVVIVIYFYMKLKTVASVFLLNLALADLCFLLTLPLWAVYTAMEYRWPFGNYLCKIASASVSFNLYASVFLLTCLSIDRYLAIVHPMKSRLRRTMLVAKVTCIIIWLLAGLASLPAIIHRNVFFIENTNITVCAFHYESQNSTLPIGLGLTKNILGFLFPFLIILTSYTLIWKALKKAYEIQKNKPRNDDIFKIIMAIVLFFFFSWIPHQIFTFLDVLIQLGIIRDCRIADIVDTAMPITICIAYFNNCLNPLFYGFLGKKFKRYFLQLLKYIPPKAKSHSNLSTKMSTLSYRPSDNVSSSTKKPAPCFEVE

Muscarinic, M1 = Muscarinic, M1 (Homo sapiens, UniProt P11229); experiment: biochemical; conditions: read-out: Pass 1 (10^−5 M) % Inhibition
Serotonin, 5HT3 = Serotonin, 5HT3 (Mus musculus, UniProt P23979); experiment: biochemical; type: binding
Serotonin, 5HT3, sequence (P23979 24-489): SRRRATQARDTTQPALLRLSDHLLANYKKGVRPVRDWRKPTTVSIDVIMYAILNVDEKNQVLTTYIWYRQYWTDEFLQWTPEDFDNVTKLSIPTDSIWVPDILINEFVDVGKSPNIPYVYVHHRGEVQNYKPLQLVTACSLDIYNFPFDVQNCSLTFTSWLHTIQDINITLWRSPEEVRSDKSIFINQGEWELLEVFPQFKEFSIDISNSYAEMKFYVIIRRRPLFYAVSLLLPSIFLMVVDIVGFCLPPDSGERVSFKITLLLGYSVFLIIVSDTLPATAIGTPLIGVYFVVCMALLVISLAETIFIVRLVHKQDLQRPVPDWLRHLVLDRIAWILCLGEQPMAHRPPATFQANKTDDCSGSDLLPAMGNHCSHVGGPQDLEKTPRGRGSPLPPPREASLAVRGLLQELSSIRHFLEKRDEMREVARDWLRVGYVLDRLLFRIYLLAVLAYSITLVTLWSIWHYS

[3] = tested on: Choline Acetyltransferase; experiment: Choline Acetyltransferase; substrate [14C]Acetyl Coenzyme; type: biochemical; conditions: 10^−5 M
Progesterone = Progesterone (Bos taurus, UniProt F1N712); experiment: Progesterone; [3H]Promegestone; type: binding; conditions: read-out: Pass 1 (10^−5 M) % Inhibition
Dopamine, D3 = target: T3, Dopamine, D3 (Rattus norvegicus, UniProt P19020); experiment: Dopamine, D3 (Rat Recombinant); [3H]7-OH-DPAT; type: binding; conditions: read-out: Pass 1 (10^−5 M) % Inhibition
T3 construct: expressed in transfected cells
T3 sequence (P19020 whole entry): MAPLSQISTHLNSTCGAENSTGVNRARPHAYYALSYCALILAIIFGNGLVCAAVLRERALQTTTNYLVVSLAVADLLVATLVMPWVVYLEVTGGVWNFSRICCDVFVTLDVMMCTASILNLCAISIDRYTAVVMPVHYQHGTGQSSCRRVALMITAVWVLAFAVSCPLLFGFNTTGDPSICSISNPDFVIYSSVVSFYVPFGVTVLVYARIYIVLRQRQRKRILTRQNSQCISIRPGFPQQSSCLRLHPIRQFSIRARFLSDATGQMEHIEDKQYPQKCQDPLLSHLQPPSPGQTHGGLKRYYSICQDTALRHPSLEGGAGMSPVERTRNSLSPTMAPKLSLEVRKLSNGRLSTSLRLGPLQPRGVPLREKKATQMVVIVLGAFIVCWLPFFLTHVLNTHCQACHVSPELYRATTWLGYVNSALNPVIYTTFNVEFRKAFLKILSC

GABA Transport = type: biochemical; conditions: 10^−5 M
Imidazoline, I2, central = experiment: Imidazoline, I2, central; [3H]2-BFI; type: binding; conditions: 10^−5 M
[4] = tested on: Corticotropin Releasing Factor, CRF; type: binding
Histamine, H3 = experiment: Histamine, H3; [3H]N-a-MeHistamine; type: binding; conditions: 10^−5 M
[5] = tested on: Glutamate, NMDA, Phencyclidine Site; experiment: Glutamate, NMDA, Phencyclidine Site; [3H]TCP; type: binding; conditions: 10^−5 M
Protein Kinase C, PDBu = type: binding
Neuropeptide, NPY2 = Neuropeptide, NPY2 (Homo sapiens, UniProt P49146); experiment: biochemical; type: binding; conditions: read-out: Pass 1 (10^−5 M) % Inhibition
Adrenergic, Alpha 1B = Adrenergic, Alpha 1B (UniProt P15823); experiment: Adrenergic, Alpha 1B; [3H]-7-MeOxy-Prazosin; type: binding
Muscarinic, M5 = target: T4, Muscarinic, M5 (Homo sapiens, UniProt P08912); experiment: biochemical; type: binding; conditions: read-out: Pass 1 (10^−5 M) % Inhibition
T4 construct: expressed in transfected cells
T4 sequence (P08912 whole entry): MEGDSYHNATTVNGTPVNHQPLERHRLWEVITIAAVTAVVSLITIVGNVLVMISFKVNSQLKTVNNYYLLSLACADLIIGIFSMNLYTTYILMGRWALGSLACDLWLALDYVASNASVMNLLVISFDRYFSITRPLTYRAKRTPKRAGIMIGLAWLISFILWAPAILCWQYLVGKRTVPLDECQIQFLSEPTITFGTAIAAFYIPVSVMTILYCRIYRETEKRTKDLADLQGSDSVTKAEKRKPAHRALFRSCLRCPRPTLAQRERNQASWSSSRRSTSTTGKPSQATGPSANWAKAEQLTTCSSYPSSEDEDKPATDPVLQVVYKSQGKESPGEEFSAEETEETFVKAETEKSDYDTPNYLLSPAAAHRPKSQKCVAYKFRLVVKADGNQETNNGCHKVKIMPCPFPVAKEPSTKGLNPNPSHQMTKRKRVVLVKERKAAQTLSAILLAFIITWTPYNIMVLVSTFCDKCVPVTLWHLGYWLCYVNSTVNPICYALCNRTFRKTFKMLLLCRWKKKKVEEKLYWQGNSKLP

Serotonin, 5HT1A = type: binding
Dopamine, D5 = target: T5, Dopamine, D5 (Homo sapiens, UniProt P21918); experiment: biochemical; type: binding; conditions: read-out: Pass 1 (10^−5 M) % Inhibition
T5 construct: expressed in transfected cells

Adenosine, A2A = target: T6, Adenosine, A2A (Homo sapiens, UniProt P29274); experiment: biochemical; type: binding; conditions: read-out: Pass 1 (10^−5 M) % Inhibition
T6 construct: expressed in transfected cells
T6 sequence (P29274 whole entry): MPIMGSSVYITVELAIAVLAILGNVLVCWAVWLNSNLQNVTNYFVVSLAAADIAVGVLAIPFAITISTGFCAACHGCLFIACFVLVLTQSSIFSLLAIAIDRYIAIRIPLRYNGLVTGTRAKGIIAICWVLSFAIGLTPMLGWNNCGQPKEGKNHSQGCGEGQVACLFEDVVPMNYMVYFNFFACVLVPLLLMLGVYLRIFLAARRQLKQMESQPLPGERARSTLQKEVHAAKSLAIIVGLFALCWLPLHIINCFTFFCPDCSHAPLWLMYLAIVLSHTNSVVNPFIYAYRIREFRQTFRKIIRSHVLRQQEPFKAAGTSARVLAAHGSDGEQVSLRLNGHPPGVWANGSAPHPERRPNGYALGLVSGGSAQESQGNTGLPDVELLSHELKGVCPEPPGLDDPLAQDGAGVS

Neurokinin, NK3 (NKB) = type: binding; conditions: 10^−5 M
[6] = target: T7, Protein Tyrosine Phosphatase, PTP-LAR-D1 (Homo sapiens, UniProt P10586); experiment: Protein Tyrosine Phosphatase, PTP-LAR-D1 (Human); substrate pNPP; type: biochemical; conditions: read-out: Pass 1 (10^−5 M) % Inhibition
T7 construct: PTP-LAR-D1

[7] = tested on: Somatostatin, Non-selective; experiment: Somatostatin, Non-selective; [125]-Somatostatin-14 (Tyr11); type: binding; conditions: 10^−5 M
Adrenergic, Beta 1 = target: T8, Adrenergic, Beta 1 (Homo sapiens, UniProt P08588); experiment: Adrenergic, Beta 1 (Human Recombinant); [125I]Iodocyanopindolol; type: binding; conditions: read-out: Pass 1 (10^−5 M) % Inhibition
T8 construct: expressed in transfected cells

Endothelin, ET-B = target: T9, Endothelin, ET-B (Homo sapiens, UniProt P24530); experiment: biochemical; type: binding; conditions: read-out: Pass 1 (10^−5 M) % Inhibition
T9 construct: expressed in transfected cells

Esterase = Esterase (Human); substrate Acetylthiocholine; type: biochemical
Serotonin Transporter = Serotonin Transporter (Rattus norvegicus, UniProt P31652); experiment: biochemical; type: binding; conditions: read-out: % Inhibiton (10^−5 M)
[8] = target: Calcium Channel, Type L (Dihydropyridine Site) (Rattus norvegicus, UniProt P22002); experiment: Calcium Channel, Type L (Dihydropyridine Site); [3H]Nitrendipine; type: binding; conditions: read-out: Pass 1 (10^−5 M) % Inhibition
Calcium Channel, Type L (Dihydropyridine Site), sequence (P22002 whole entry, looked up): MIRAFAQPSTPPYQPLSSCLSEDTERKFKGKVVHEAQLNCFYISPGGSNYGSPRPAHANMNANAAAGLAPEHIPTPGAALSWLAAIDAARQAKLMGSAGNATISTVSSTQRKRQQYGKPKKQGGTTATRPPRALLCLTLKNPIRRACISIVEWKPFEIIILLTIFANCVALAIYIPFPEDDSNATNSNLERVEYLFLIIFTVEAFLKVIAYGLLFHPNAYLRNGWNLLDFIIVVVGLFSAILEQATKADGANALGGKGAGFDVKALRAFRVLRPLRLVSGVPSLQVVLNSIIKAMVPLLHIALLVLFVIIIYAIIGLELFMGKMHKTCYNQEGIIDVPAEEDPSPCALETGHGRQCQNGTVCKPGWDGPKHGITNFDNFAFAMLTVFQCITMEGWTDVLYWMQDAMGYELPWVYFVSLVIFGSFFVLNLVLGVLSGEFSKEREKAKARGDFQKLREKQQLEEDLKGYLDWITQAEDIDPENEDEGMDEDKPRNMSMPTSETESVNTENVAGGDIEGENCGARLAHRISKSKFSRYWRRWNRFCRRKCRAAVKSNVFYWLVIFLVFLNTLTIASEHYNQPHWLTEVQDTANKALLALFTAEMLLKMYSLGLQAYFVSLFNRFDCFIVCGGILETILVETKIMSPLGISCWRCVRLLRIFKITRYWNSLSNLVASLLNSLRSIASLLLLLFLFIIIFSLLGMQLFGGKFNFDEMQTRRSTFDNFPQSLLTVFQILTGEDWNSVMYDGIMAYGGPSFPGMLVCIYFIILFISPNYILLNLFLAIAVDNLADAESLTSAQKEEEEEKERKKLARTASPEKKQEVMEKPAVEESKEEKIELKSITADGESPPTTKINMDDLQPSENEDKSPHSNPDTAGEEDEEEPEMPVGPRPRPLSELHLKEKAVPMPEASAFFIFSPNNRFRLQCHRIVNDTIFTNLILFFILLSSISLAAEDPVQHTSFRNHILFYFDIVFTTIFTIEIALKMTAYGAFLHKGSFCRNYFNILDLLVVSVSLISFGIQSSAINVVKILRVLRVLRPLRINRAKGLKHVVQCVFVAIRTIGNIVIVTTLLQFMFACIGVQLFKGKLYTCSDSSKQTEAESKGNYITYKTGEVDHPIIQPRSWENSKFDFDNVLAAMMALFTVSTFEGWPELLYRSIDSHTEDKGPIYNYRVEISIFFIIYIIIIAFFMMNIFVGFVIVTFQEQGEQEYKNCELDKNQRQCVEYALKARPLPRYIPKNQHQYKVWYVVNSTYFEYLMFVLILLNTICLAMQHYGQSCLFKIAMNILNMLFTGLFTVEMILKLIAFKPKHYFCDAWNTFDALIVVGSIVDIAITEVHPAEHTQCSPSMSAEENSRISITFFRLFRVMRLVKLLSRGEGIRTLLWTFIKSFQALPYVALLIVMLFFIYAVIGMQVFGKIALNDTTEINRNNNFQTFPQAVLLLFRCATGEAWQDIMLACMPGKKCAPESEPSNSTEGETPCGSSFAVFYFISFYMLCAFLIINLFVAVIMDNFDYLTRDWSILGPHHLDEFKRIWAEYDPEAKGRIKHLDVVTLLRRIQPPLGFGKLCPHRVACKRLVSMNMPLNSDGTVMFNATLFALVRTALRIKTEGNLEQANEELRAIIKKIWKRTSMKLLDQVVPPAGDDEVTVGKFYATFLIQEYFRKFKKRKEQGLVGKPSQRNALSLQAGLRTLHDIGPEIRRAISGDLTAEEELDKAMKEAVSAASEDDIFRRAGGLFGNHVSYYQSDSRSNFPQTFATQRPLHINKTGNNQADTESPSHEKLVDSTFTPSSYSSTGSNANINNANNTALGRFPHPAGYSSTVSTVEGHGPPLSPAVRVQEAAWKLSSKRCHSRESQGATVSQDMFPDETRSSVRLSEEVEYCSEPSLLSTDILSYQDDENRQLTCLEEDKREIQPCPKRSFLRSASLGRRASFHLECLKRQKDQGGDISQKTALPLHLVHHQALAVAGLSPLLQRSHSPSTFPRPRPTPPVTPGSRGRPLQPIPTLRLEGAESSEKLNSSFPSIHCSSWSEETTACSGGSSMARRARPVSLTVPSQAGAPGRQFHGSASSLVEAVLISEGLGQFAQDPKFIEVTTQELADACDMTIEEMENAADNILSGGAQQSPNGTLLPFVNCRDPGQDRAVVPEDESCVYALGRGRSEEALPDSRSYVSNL

Melatonin = experiment: Melatonin; [125I]-2-Iodomelatonin; type: binding; conditions: 10^−5 M
[9] = tested on: Glutamate, NMDA, Glycine (Stry-insens Site); type: binding; conditions: 10^−5 M
Muscarinic, M4 = target: T10, Muscarinic, M4 (Homo sapiens, UniProt P08173); experiment: biochemical; type: binding; conditions: read-out: Pass 1 (10^−5 M) % Inhibition
T10 construct: expressed in transfected cells

[10] = target: Protein Phosphatase, PP2A (Homo sapiens, UniProt P67775); experiment: Protein Phosphatase, PP2A (Human); substrate DiFMUP; type: biochemical; conditions: read-out: Pass 1 (10^−5 M) % Inhibition
Sodium, Site 1 = type: binding
Serotonin, 5HT6 = target: T11, Serotonin, 5HT6 (Homo sapiens, UniProt P50406); experiment: biochemical; type: binding; conditions: read-out: Pass 1 (10^−5 M) % Inhibition
T11 construct: expressed in transfected cells
T11 sequence (P50406 whole entry): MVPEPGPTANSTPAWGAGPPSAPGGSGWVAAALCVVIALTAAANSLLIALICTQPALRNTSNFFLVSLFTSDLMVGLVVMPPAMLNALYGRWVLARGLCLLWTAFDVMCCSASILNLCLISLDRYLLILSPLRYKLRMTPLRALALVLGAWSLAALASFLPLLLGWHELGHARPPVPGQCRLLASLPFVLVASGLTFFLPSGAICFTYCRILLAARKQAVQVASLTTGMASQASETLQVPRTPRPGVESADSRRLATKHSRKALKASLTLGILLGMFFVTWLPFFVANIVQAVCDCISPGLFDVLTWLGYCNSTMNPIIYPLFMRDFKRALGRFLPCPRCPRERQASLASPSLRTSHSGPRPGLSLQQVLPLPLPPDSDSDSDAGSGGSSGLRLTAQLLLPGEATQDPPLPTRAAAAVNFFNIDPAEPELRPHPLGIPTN

GABA A, Agonist Site = type: binding
Galanin = experiment: Galanin; [I125]Galanin; type: binding
[11] = tested on: Cholecystokinin, CCK2 (CCKB); experiment: Cholecystokinin, CCK2 (CCKB); [125I]CCK-8; type: binding; conditions: 10^−5 M
[12] = target: Benzodiazepine, peripheral (Homo sapiens, UniProt P30536); experiment: biochemical; type: binding; conditions: read-out: Pass 1 (10^−5 M) % Inhibition
Benzodiazepine, peripheral, sequence (P30536 whole entry): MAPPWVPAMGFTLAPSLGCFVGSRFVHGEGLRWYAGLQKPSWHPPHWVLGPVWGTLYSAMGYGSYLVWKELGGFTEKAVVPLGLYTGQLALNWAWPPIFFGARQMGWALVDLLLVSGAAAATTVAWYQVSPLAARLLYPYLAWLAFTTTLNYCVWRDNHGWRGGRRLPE

For `COC(=O)[C@H]1[C@@H](OC(=O)c2ccccc2)C[C@@H]2CC[C@H]1N2C` [cocaine], the “Pass 1 (10^−5 M) % Inhibition” value [1] was 16.63%, the “Pass 1 (10^−5 M) % Inhibition” value [2] was −19.14% and the “Pass 1 (10^−5 M) % Inhibition” value (Calcium Channel, Type N) was 11.51%. The “Pass 1 (10^−5 M) % Inhibition” value (Glutamate, Kainate Site) was 1.95%, the “Pass 1 (10^−5 M) % Inhibition” value (Glutamate, MK-801 Site) was −2.86% and the inhibition at 10 µM (Cannabinoid, CB1) was 33.4%. It also gave an inhibition at 10 µM (Serotonin, 5HT5A) of 12%, an inhibition at 10 µM (Angiotensin II, ATI) of 21.2% and an inhibition at 10 µM (Muscarinic, M1) of 23.3%. For the same compound, the Ki (Serotonin, 5HT3; Pass 3 screening, nine concentrations, read-out: Ki Determination) was 3.09 µM, the inhibition at 10 µM (Serotonin, 5HT3; read-out: Pass 1 (10^−5 M) % Inhibition) was 60.3% and the “Pass 1 (10^−5 M) % Inhibition” value [3] was 8.25%. For the same compound, the inhibition at 10 µM (Progesterone) was -10.9%, the inhibition at 10 µM (Dopamine, D3) was 30.2% and the “Pass 1 (10^−5 M) % Inhibition” value (GABA Transport) was −19.43%. The “Pass 1 (10^−5 M) % Inhibition” value (Imidazoline, I2, central) was 37.90%, the “Pass 1 (10^−5 M) % Inhibition” value [4] was 22.49% and the “Pass 1 (10^−5 M) % Inhibition” value (Histamine, H3) was −4.60%. For the same compound, the “Pass 1 (10^−5 M) % Inhibition” value [5] was 6.63%, the “Pass 1 (10^−5 M) % Inhibition” value (Protein Kinase C, PDBu) was −4.44% and the inhibition at 10 µM (Neuropeptide, NPY2) was 4.27%. For the same compound, the “Pass 1 (10^−5 M) % Inhibition” value (Adrenergic, Alpha 1B) was −6.30%, the inhibition at 10 µM (Muscarinic, M5) was 6.01% and the “Pass 1 (10^−5 M) % Inhibition” value (Serotonin, 5HT1A) was 0.52%. For the same compound, the inhibition at 10 µM (Dopamine, D5) was 2.44%, the inhibition at 10 µM (Adenosine, A2A) was 25.9% and the “Pass 1 (10^−5 M) % Inhibition” value (Neurokinin, NK3 (NKB)) was −15.24%. The inhibition at 10 µM [6] was 24.4%, the “Pass 1 (10^−5 M) % Inhibition” value [7] was −3.54% and the inhibition at 10 µM (Adrenergic, Beta 1) was 11.7%. For the same compound, the inhibition at 10 µM (Endothelin, ET-B) was 0.19%, the “Pass 1 (10^−5 M) % Inhibition” value (Esterase) was 31.58% and the inhibition at 10 µM (Serotonin Transporter) was 96.2%. The inhibition at 10 µM [8] was 10.2%, the “Pass 1 (10^−5 M) % Inhibition” value (Melatonin) was 16.13% and the “Pass 1 (10^−5 M) % Inhibition” value [9] was −1.56%. For the same compound, the inhibition at 10 µM (Muscarinic, M4) was 0.42%, the inhibition at 10 µM [10] was 15.3% and the “Pass 1 (10^−5 M) % Inhibition” value (Sodium, Site 1) was 2.74%. For the same compound, the inhibition at 10 µM (Serotonin, 5HT6) was 1.13%, the “Pass 1 (10^−5 M) % Inhibition” value (GABA A, Agonist Site) was 5.81% and the “Pass 1 (10^−5 M) % Inhibition” value (Galanin) was −14.73%. For the same compound, the “Pass 1 (10^−5 M) % Inhibition” value [11] was −14.06% and the inhibition at 10 µM [12] was 0.51%.
